The values that follow are results of earlier work, collected in patent US6419963B1, “Composition and method for the treatment of diaper rash using natural products” (priority 2001, dated 2002).

The test system of data set [1] is ethanol-induced ulcers. The note with it: rats.

Turning to `[O]=[Zn]` [Zinc oxide], the solubility in water result is “almost totally insoluble”.
For `CN/C(=N/CCSCc1nc[nH]c1C)NC#N` [cimetidine], the ethanol-induced ulcers entry in data set [1] is recorded as “not affected”.
As to Zinc glycerolate, the solubility in water result is reported as “insoluble”.
